In patent publication US20090203644A1, “Compositions for treating and/or preventing diseases characterized by the presence of metal ions” (GrenPharma LLC, priority 2004, published 2009):
Entries after “also recorded” stand apart in the source; their conditions may differ. Like-named read-outs stand apart in the source and are kept apart here. One block for each compound: values may come before it.

How the values were obtained:
[1] = Permeation of Transwell membranes alone (wells without cells)
[2] = in vivo; cited from earlier work
A-beta antigen = test system: A-beta antigen; set-up: species or system human
A-beta1-42 peptide = A-beta1-42 peptide (Homo sapiens, UniProt P05067); type: biochemical
A-beta peptide fragment = A-beta peptide fragment (Homo sapiens, UniProt P05067); test: CD helix-coil reversal and pretreatment experiments (Example 11); type: biochemical
A-beta peptide [3] = molecular target: A-beta peptide (Homo sapiens, UniProt P05067); type: biochemical
A-beta peptide [4] = test system: A-beta peptide; set-up: species or system human
[5] = 20 mM in 25 mM or 100 mM MOPS, pH 7.1

Sequence of A-beta peptide fragment (P05067 672-713): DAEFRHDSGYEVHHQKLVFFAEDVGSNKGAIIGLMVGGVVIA
Sequence of A-beta1-42 peptide (P05067 672-713): as above
Sequence of A-beta peptide (Homo sapiens, UniProt P05067) (P05067 672-713): as above

Cell Permeation Coefficient (cm/sec) Caco-2 (Caco-2 cells; human, Caco-2, 60 min): 2.6e-06 cm/s | Permeation Coefficient (cm/sec) Mean ± SD, where applicable (Caco-2 cells; human, Caco-2, 60 min, 20 mM): 1.9 ± 1.9 × 10^−6 cm/sec | Total Permeation Coefficient (cm/sec) Mean ± SD, where applicable, Caco-2 (Caco-2 cells; human, Caco-2, 60 min, 20 mM): 1.9 ± 1.9 × 10^−6 cm/sec | Cell Permeation Coefficient (cm/sec) MDCK (MDCK cells; dog, 60 min): 1.4e-06 cm/s | Total Permeation Coefficient (cm/sec) Mean ± SD, where applicable, MDCK (MDCK cells; dog, 60 min, 20 mM): 1.3 ± 1.0 × 10^−6 cm/sec | Transwell Permeation Coeff. Mean ± SD, where applicable [1]: 3.6 ± 0.3 × 10^−5 cm/sec
SMILES: OC[C@@H](O)[C@@H](O)[C@H](O)[C@H](O)CO [mannitol, reference compound]

SMILES: O=C(O)CN(CCN(CC(=O)O)CC(=O)O)CC(=O)O [EDTA, ethylenediaminetetraacetic acid]
time typical doses last in the body [2]: about 1 hour

SMILES: C[Si](Cl)(Cl)CCC#N [CEMS, 2-cyanoethylmethyldichlorosilane]
total extracted (A-beta antigen): 1.4 fmol | amount of Al added until which helicity was preserved (A-beta1-42 peptide): about 1 equivalent | protection of helical structure of A-beta1-42 against amyloid formation by aluminum (III) (A-beta1-42 peptide): protection of the helical structure | protection against loss of helicity upon addition of Al(ClO4)3 (A-beta peptide fragment): protection against loss of helicity | recovery of helical structure (CD) (A-beta peptide fragment): recovery of helical structure | recovery of helicity (CD) (A-beta peptide fragment): recovery of helicity | recovery of helicity in Al-denatured peptide / reversal of aluminum-induced denaturation (CD) (A-beta peptide fragment): appeared to reverse aluminum-induced denaturation; also recorded: recovery of helicity | protection from and/or reversal of metal-induced aggregation (DLS) (A-beta peptide [3]): protection against Al^3+-induced aggregation | total extracted (A-beta peptide [4]): 4.5 fmol | Permeation Coefficient (cm/sec) Mean ± SD, where applicable (Caco-2 cells; human, Caco-2): 4.6e-06 cm/s | Total Permeation Coefficient (cm/sec) Mean ± SD, where applicable, Caco-2 (Caco-2 cells; human, Caco-2): 4.6e-06 cm/s | Total Permeation Coefficient (cm/sec) Mean ± SD, where applicable, MDCK (MDCK cells; dog): 1.3e-06 cm/s

SMILES: C[Si](Cl)(Cl)CC[Si](C)(Cl)Cl [compound 1042, 1,2-(methyldichlorosilyl)ethane]
share of total antigen released to the extract (A-beta antigen): approximately 12% | total extracted (A-beta antigen): 14.0 fmol | recovery of helicity in Al-denatured peptide / reversal of aluminum-induced denaturation (CD) (A-beta peptide fragment; TFE solution, Al(ClO4)3): recovery of helicity | amyloid extracted compared with MOPS / buffer controls (A-beta peptide [4]): more amyloid | share of total antigen released to the extract (A-beta peptide [4]): approximately 6% | total extracted (A-beta peptide [4]): 17.2 fmol | Cell Permeation Coefficient (cm/sec) Caco-2 (Caco-2 cells; Caco-2): 6.7e-05 cm/s | Permeation Coefficient (cm/sec) Mean ± SD, where applicable (Caco-2 cells; Caco-2): 2.5e-05 cm/s | Total Permeation Coefficient (cm/sec) Mean ± SD, where applicable, Caco-2 (Caco-2 cells; Caco-2): 1.9 ± 1.1 × 10^−5 cm/sec | cell permeation coefficient compared with mannitol, Caco-2 (Caco-2 cells; Caco-2): at least ten times greater | crossing of the epithelial barrier in the Caco-2 model (Caco-2 cells; Caco-2): cross the epithelial barrier relatively efficiently | permeation across Caco-2 cells compared with mannitol (Caco-2 cells; Caco-2): at least ten times greater | time for which solutions were free of precipitate or colloidal suspensions / stable after preparation [5]: at least 24 hours | Cell Permeation Coefficient (cm/sec) MDCK (MDCK cells): 5.6e-05 cm/s | Total Permeation Coefficient (cm/sec) Mean ± SD, where applicable, MDCK (MDCK cells): 1.8 ± 1.2 × 10^−5 cm/sec | cell permeation coefficient compared with mannitol, MDCK (MDCK cells): at least ten times greater | crossing of the epithelial barrier in the MDCK model (MDCK cells): cross the epithelial barrier relatively efficiently | permeation across MDCK cells compared with mannitol (MDCK cells): at least ten times greater
